For data set [1] the following is noted: 298.15 K, Liquid; for viscosity: Capillary tube (Ostwald / Ubbelohde) method.
The conditions of data set [2]: 298.15 K; 101.7 kPa; Liquid mixture 1; Pendant drop shape.

As usually defined, the viscosity is the resistance of a fluid to flow. In general, mass density refers to mass per unit of volume.

Molecules are shown by their SMILES. ± gives the expanded uncertainty stated by the source.

With `Cc1ccccc1` [toluene], in data set [1] (101 kPa), the viscosity was determined as 0.554 ± 0.04 mPa·s. Besides, in data set [1] (101.7 kPa, Vibrating tube method), the mass density stood at 860.8 ± 2 kg/m3. With `Cc1ccccc1` [toluene] + O, the interfacial tension in data set [2] was 36.2 ± 3.6 mN/m. Take `O` [water]: in data set [1] (101.7 kPa), the viscosity worked out at 0.8958 ± 0.041 mPa·s.

These data come from the NIST ThermoML archive (doi:10.1021/acs.jced.7b00505).
